Where two headings read alike, the source gives them in different places.
Assays:
[1] = system: All viruses tested (dual H275Y, single H275Y, wild-type)
[2] = system: A/Hiroshima/13/2016 (H275Y/G147R)
[3] = system: A/Hiroshima/57/2014 (H275Y/I223R)
[4] = system: A/Ibaraki/54/2016 (H275Y/I223K)
A/Aichi/83/2016 (H275Y) [5] = system: A/Aichi/83/2016 (H275Y)
A/Osaka/8/2014 (H275Y) [6] = system: A/Osaka/8/2014 (H275Y)
[7] = system: A/Yokohama/94/2016 (H275Y)
[8] = system: A/Ibaraki/54/2016 (H275Y/I223K); remark: listed apart in the source
[9] = system: A/Yokohama/94/2016 (H275Y); remark: listed apart in the source
[10] = system: A/Hiroshima/13/2016 (H275Y/G147R); remark: listed apart in the source
A/Osaka/8/2014 (H275Y) [11] = system: A/Osaka/8/2014 (H275Y); remark: listed apart in the source
A/Aichi/83/2016 (H275Y) [12] = system: A/Aichi/83/2016 (H275Y); remark: listed apart in the source
[13] = system: All viruses tested (dual H275Y, single H275Y, wild-type); remark: listed apart in the source
[14] = system: A/Hiroshima/57/2014 (H275Y/I223R); remark: listed apart in the source
[15] = molecular target: neuraminidase of A/Hiroshima/13/2016 (H275Y/G147R) (Influenza A virus, UniProt A0A0X9QTS2, G147R/H275Y)
[16] = system: neuraminidase of the dual H275Y mutant viruses
[17] = molecular target: neuraminidase of A/Yokohama/94/2016 (H275Y) (Influenza A virus, UniProt A0A0X9QTS2, H275Y)
[18] = molecular target: neuraminidase of A/Hiroshima/57/2014 (H275Y/I223R) (Influenza A virus, UniProt W8DXJ8, H275Y/I223R)
[19] = molecular target: neuraminidase of A/Aichi/83/2016 (H275Y) (Influenza A virus, UniProt A0A0X9QTS2, H275Y)
[20] = molecular target: neuraminidase of A/Osaka/8/2014 (H275Y) (Influenza A virus, UniProt W8DXJ8, H275Y)
[21] = molecular target: neuraminidase of A/Ibaraki/54/2016 (H275Y/I223K) (Influenza A virus, UniProt A0A0X9QTS2, H275Y/I223K)

## O=C1c2c(O)c(=O)ccn2N([C@@H]2c3ccccc3SCc3c2ccc(F)c3F)[C@@H]2COCCN12 [Baloxavir, Baloxavir acid]
[1]
  Susceptibility of all viruses tested (in words): susceptible
[2]
  Fold-change in IC50 compared with the wild-type virus: 10.59 (1.0) fold
  IC50: 10.6 nM
[3]
  Fold-change in IC50 compared with the wild-type virus: 8.34 (2.1) fold
  IC50: 8.34 nM
[4]
  Fold-change in IC50 compared with the wild-type virus: 7.24 (1.2) fold
  IC50: 7.24 nM
A/Aichi/83/2016 (H275Y) [5]
  Fold-change in IC50 compared with the wild-type virus: 10.18 (0.9) fold
  IC50: 10.2 nM
A/Osaka/8/2014 (H275Y) [6]
  Fold-change in IC50 compared with the wild-type virus: 5.10 (1.3) fold
  IC50: 5.1 nM
[7]
  Fold-change in IC50 compared with the wild-type virus: 3.49 (0.6) fold
  IC50: 3.49 nM

## NC(=O)c1nc(F)c[nH]c1=O [Favipiravir, favipiravir]
[8]
  EC50: 10200 nM
  Fold-change in EC50 compared with the wild-type virus: 10.20 (1.0) fold
[9]
  EC50: 21400 nM
  Fold-change in EC50 compared with the wild-type virus: 21.40 (2.1) fold
[10]
  EC50: 15100 nM
  Fold-change in EC50 compared with the wild-type virus: 15.13 (1.7) fold
A/Osaka/8/2014 (H275Y) [11]
  EC50: 4760 nM
  Fold-change in EC50 compared with the wild-type virus: 4.76 (0.7) fold
A/Aichi/83/2016 (H275Y) [12]
  EC50: 14800 nM
  Fold-change in EC50 compared with the wild-type virus: 14.83 (1.7) fold
[13]
  Susceptibility of all viruses tested (in words): susceptible
[14]
  EC50: 7990 nM
  Fold-change in EC50 compared with the wild-type virus: 7.99 (1.2) fold

## [H]/N=C(\N)N[C@H]1C=C(C(=O)O)O[C@@H]([C@H](OC)[C@H](O)CO)[C@@H]1NC(C)=O [Laninamivir]
[15]
  Susceptibility of the H275Y/G147R mutant virus (in words): retained susceptibility
[16]
  Susceptibility of the H275Y/I223R and H275Y/I223K mutant viruses (in words): reduced susceptibility

## CCC(CC)[C@H](NC(C)=O)[C@@H]1[C@H](O)[C@@H](C(=O)O)C[C@H]1N=C(N)N.O.O.O [Peramivir, peramivir trihydrate]
[15]
  Fold-change in IC50 compared with the wild-type virus: 114.14 (1,400) fold
  IC50: 114 nM
[16]
  Susceptibility of the H275Y/I223R, H275Y/I223K and H275Y/G147R mutant viruses (in words): enhanced cross-resistance
[17]
  Fold-change in IC50 compared with the wild-type virus: 20.88 (300) fold
  IC50: 20.9 nM
[18]
  Fold-change in IC50 compared with the wild-type virus: 944.20 (94,000) fold
  IC50: 944 nM
[19]
  Fold-change in IC50 compared with the wild-type virus: 31.93 (400) fold
  IC50: 31.9 nM
[20]
  Fold-change in IC50 compared with the wild-type virus: 28.25 (2,800) fold
  IC50: 28.2 nM
[21]
  Fold-change in IC50 compared with the wild-type virus: 501.62 (7,200) fold
  IC50: 502 nM

## CC(=O)N[C@H]1[C@H]([C@H](O)[C@H](O)CO)OC(C(=O)O)=C[C@@H]1N=C(N)N [Zanamivir, zanamivir hydrate]
[16]
  Susceptibility of the H275Y/I223R, H275Y/I223K and H275Y/G147R mutant viruses (in words): reduced susceptibility
